Structures can show the parent of a compound that is named as a salt.
Molecular target: T1, recombinant human GPR52 (Homo sapiens, UniProt Q9Y2T5)
T1 construct: expressed in transfected cells
Assay: GPR52 activity: TR-FRET cAMP assay (LANCE Ultra cAMP Kit)
Type: cell-based
Settings: Flp-In-CHO cells stably expressing recombinant human GPR52; cAMP production, normalized to positive control
Protocol: TR-FRET cAMP assays were performed using commercially available assay kits (LANCE™ Ultra cAMP Kit). Controls and compounds were solubilized in DMSO using ½ log dilution to generate duplicate 10-point dose response curves in 384-well polypropylene compound plates. Sixty nanoliters of the diluted compounds were transferred into 384-well NBS assay plates and further diluted to 1× with the addition of 2000 cells per well. Flp-In™-CHO cells that stably express recombinant human GPR52.
Cells were harvested with cell stripper and resuspended in Stimulation Buffer (5 mM HEPES, 0.1% bovine serum albumin (BSA), 0.5 mM IBMX, pH 7.4). After thirty minutes incubation at room temperature, detection reagents were added to each well. Plates were then incubated for 30 minutes at room temperature. The LANCE™ Ultra cAMP assay uses time-resolved fluorescence resonance energy transfer (TR-FRET) to detect cAMP production; this signal was quantified using a Pherastar multi-mode plate reader.
Dose-response curves were generated from the fluorescence counts normalized to the positive control. E EC50 values were obtained using a nonlinear regression curve-fitting program.

T1 sequence (Q9Y2T5 whole entry): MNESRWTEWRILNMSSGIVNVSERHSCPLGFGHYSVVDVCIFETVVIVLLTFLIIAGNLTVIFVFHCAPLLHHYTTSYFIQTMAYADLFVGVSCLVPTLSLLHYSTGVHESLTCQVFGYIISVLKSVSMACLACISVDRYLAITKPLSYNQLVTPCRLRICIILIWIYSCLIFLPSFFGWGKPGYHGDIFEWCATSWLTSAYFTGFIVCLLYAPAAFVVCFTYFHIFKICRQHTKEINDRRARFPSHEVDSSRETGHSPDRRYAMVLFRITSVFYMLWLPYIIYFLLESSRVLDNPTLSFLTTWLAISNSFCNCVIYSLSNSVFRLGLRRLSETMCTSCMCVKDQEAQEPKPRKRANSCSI

Row | SMILES | EC50
1 | COc1ccc(Cc2ccnc(-c3cccc(C(N)=O)c3)c2)cc1F [Compound 29, 3-{4-[(3-fluoro-4-methoxyphenyl)methyl]pyridin-2-yl}benzamide] | 101 to 1000 nM
2 | Cc1cc(F)cc(Cc2ccnc(-c3cccc(C(N)=O)c3)c2)c1 [Compound 22, 3-{4-[(3-fluoro-5-methylphenyl)methyl]pyridin-2-yl}benzamide] | 101 to 1000 nM
3 | Cc1cc(-c2cc(C(O)c3cccc(C(F)(F)F)c3)ccn2)ccc1C(N)=O (centres unmarked) [Compound 43, 4-(4-{hydroxy [3-(trifluoromethyl)phenyl]methyl}pyridin-2-yl)-2-methylbenzamide] | > 1000 nM
4 | COc1ccc(Cc2ccnc(-c3ccc(C(N)=O)cc3)c2)cc1F [Compound 20, 4-{4-[(3-fluoro-4-methoxyphenyl)methyl]pyridin-2-yl}benzamide] | 101 to 1000 nM
5 | N#Cc1cc(Cc2ccnc(-c3ccc(C(N)=O)c(F)c3)c2)cc(F)c1F [Compound 24, 4-{4-[(3-cyano-4,5-difluorophenyl)methyl]pyridin-2-yl}-2-fluorobenzamide] | 101 to 1000 nM
6 | NC(=O)c1ccc(-c2cc(Cc3cc(C(F)(F)F)ccc3F)ccn2)cc1 [Compound 39, 4-(4-{[2-fluoro-5-(trifluoromethyl)phenyl]methyl}pyridin-2-yl)benzamide] | 101 to 1000 nM
7 | Cc1cc(F)cc(Cc2ccnc(-c3ccc(C(N)=O)cc3)c2)c1 [Compound 28, 4-{4-[(3-fluoro-5-methylphenyl)methyl]pyridin-2-yl}benzamide] | 101 to 1000 nM
8 | NC(=O)c1cccc(-c2cc(Cc3cc(F)cc(Cl)c3)ccn2)c1 [Compound 25, 3-{4-[(3-chloro-5-fluorophenyl)methyl]pyridin-2-yl}benzamide] | 101 to 1000 nM
9 | NC(=O)c1ccc(-c2cc(Cc3cccc(OC(F)(F)F)c3)ccn2)cc1 [Compound 26, 4-(4-{[3-(trifluoromethoxy)phenyl]methyl}pyridin-2-yl)benzamide] | 101 to 1000 nM
10 | N#Cc1cc(Cc2ccnc(-c3ccc(C(N)=O)cc3)c2)cc(F)c1F [Compound 30, 4-{4-[(3-cyano-4,5-difluorophenyl)methyl]pyridin-2-yl}benzamide hydrochloride] | 101 to 1000 nM
11 | Cc1cc(-c2cccc(Cc3cccc(C(F)(F)F)c3)n2)ccc1C(N)=O [Compound 12, 2-methyl-4-(6-{[3-(trifluoromethyl)phenyl]methyl}pyridin-2-yl)benzamide] | 25 to 100 nM
12 | Cc1cc(-c2cc(Cc3cccc(S(=O)(=O)C(F)(F)F)c3)ccn2)ccc1C(N)=O [Compound 34, 2-methyl-4-{4-[(3-trifluoromethanesulfonylphenyl)methyl]pyridin-2-yl}benzamide hydrochloride] | 101 to 1000 nM
13 | COc1cc(-c2cc(Cc3cc(F)c(F)c(C#N)c3)ccn2)ccc1C(N)=O [Compound 13, 4-{4-[(3-cyano-4,5-difluorophenyl)methyl]pyridin-2-yl}-2-methoxybenzamide] | 25 to 100 nM
14 | CS(=O)(=O)c1cccc(Cc2ccnc(-c3ccc(C(N)=O)cc3)c2)c1 [Compound 27, 4-{4-[(3-methanesulfonylphenyl)methyl]pyridin-2-yl}benzamide] | 101 to 1000 nM
15 | N#Cc1cc(Cc2ccnc(-c3ccc4c(c3)CCNC4=O)c2)ccc1F [Compound 42, 2-fluoro-5-{[2-(1-oxo-1,2,3,4-tetrahydroisoquinolin-6-yl)pyridin-4-yl]methyl}benzonitrile] | 101 to 1000 nM
16 | Cc1cc(Cc2ccnc(-c3ccc(C(N)=O)cc3)c2)ccc1F [Compound 10, 4-{4-[(4-fluoro-3-methylphenyl)methyl]pyridin-2-yl}benzamide] | 25 to 100 nM
17 | NC(=O)Cc1ccc(-c2cc(Cc3cccc(C(F)(F)F)c3)ccn2)cc1 [Compound 18, 2-[4-(4-{[3-(trifluoromethyl)phenyl]methyl}pyridin-2-yl)phenyl]acetamide] | 25 to 100 nM
18 | N#Cc1cc(F)cc(Cc2ccnc(-c3ccc(C(N)=O)cc3)c2)c1 [Compound 40, 4-{4-[(3-cyano-5-fluorophenyl)methyl]pyridin-2-yl}benzamide] | > 1000 nM
19 | Cc1cc(-c2cc(Cc3cccc(C(F)(F)F)c3)ccn2)ccc1C(=O)NCCO [Compound 36, N-(2-hydroxyethyl)-2-methyl-4-(4-{[3-(trifluoromethyl)phenyl]methyl}pyridin-2-yl)benzamide] | 25 to 100 nM
20 | NC(=O)c1ccc(-c2cc(Cc3ccc(F)c(C(F)(F)F)c3)ccn2)cc1 [Compound 23, 4-(4-{[4-fluoro-3-(trifluoromethyl)phenyl]methyl}pyridin-2-yl)benzamide] | 101 to 1000 nM
21 | Cc1cc(-c2cc(Cc3ccc(F)c(C#N)c3)ccn2)ccc1C(N)=O [Compound 8, 4-{4-[(3-cyano-4-fluorophenyl)methyl]pyridin-2-yl}-2-methylbenzamide] | 25 to 100 nM
22 | Cc1cc(-c2cc(Cc3cccc(S(C)(=O)=O)c3)c(F)cn2)ccc1C(N)=O [Compound 31, 4-{5-fluoro-4-[(3-methanesulfonylphenyl)methyl]pyridin-2-yl}-2-methylbenzamide hydrochloride] | 25 to 100 nM
23 | NC(=O)c1ccc(-c2cc(Cc3cc(F)cc(Cl)c3)ccn2)cc1 [Compound 21, 4-{4-[(3-chloro-5-fluorophenyl)methyl]pyridin-2-yl}benzamide] | 101 to 1000 nM

Second part, the compound after the results:

Row | EC50 | SMILES
24 | 25 to 100 nM | Cc1cc(-c2cc(Cc3cccc(S(C)(=O)=O)c3)ccn2)ccc1C(N)=O [Compound 11, 4-{4-[(3-methanesulfonylphenyl)methyl]pyridin-2-yl}-2-methylbenzamide hydrochloride]
25 | 25 to 100 nM | Cc1cc(-c2cc(Cc3cc(F)c(F)c(C#N)c3)ccn2)ccc1C(N)=O [Compound 7, 4-{4-[(3-cyano-4,5-difluorophenyl)methyl]pyridin-2-yl}-2-methylbenzamide]
26 | 25 to 100 nM | NC(=O)c1ccc(-c2cc(Cc3cc(F)cc(C(F)(F)F)c3)ccn2)cc1 [Compound 14, 4-(4-{[3-fluoro-5-(trifluoromethyl)phenyl]methyl}pyridin-2-yl)benzamide]
27 | 25 to 100 nM | Cc1cc(-c2cc(Cc3cc(F)c(F)c(C#N)c3)ccn2)cc(F)c1C(N)=O [Compound 15, 4-{4-[(3-cyano-4,5-difluorophenyl)methyl]pyridin-2-yl}-2-fluoro-6-methylbenzamide]
28 | < 25 nM | CSc1cccc(Cc2ccnc(-c3ccc(C(N)=O)c(C)c3)c2)c1 [Compound 5, 2-methyl-4-(4-{[3-(methylsulfanyl)phenyl]methyl}pyridin-2-yl)benzamide]
29 | 25 to 100 nM | Cc1cc(-c2cc(Cc3cccc(C(F)(F)F)c3)ccn2)ccc1C(=O)NCCCO [Compound 37, N-(3-hydroxypropyl)-2-methyl-4-(4-{[3-(trifluoromethyl)phenyl]methyl}pyridin-2-yl)benzamide]
30 | < 25 nM | COc1cc(Cc2ccnc(-c3ccc(C(N)=O)c(C)c3)c2)cc(F)c1F [Compound 4, 4-{4-[(3,4-difluoro-5-methoxyphenyl)methyl]pyridin-2-yl}-2-methylbenzamide]
31 | 25 to 100 nM | Cc1cc(Cc2ccnc(-c3cccc(C(N)=O)c3)c2)ccc1F [Compound 19, 3-{4-[(4-fluoro-3-methylphenyl)methyl]pyridin-2-yl}benzamide]
32 | < 25 nM | N#Cc1cc(Cc2ccnc(-c3ccc(C(N)=O)c(C(F)(F)F)c3)c2)cc(F)c1F [Compound 6, 4-{4-[(3-cyano-4,5-difluorophenyl)methyl]pyridin-2-yl}-2-(trifluoromethyl)benzamide]
33 | 25 to 100 nM | Cc1cc(-c2cc(Cc3cc(F)c(F)c(C#N)c3)c(F)cn2)ccc1C(N)=O [Compound 9, 4-{4-[(3-cyano-4,5-difluorophenyl)methyl]-5-fluoropyridin-2-yl}-2-methylbenzamide]
34 | 25 to 100 nM | NC(=O)c1cccc(-c2cc(Cc3cc(F)cc(C(F)(F)F)c3)ccn2)c1 [Compound 17, 3-(4-{[3-fluoro-5-(trifluoromethyl)phenyl]methyl}pyridin-2-yl)benzamide]
35 | 25 to 100 nM | NC(=O)Cc1cccc(-c2cc(Cc3cccc(C(F)(F)F)c3)ccn2)c1 [Compound 16, 2-[3-(4-{[3-(trifluoromethyl)phenyl]methyl}pyridin-2-yl)phenyl]acetamide]
36 | 25 to 100 nM | NC(=O)C1CCN(c2cc(Cc3cccc(C(F)(F)F)c3)ccn2)CC1 [Compound 41, 1-(4-{[3-(trifluoromethyl)phenyl]methyl}pyridin-2-yl)piperidine-4-carboxamide]
37 | < 25 nM | Cc1cc(-c2cc(Cc3cccc(C(F)(F)F)c3)ccn2)ccc1C(=O)N1CCNCC1 [Compound 35, 1-[2-methyl-4-(4-{[3-(trifluoromethyl)phenyl]methyl}pyridin-2-yl)benzoyl]piperazine hydrochloride]
38 | < 25 nM | Cc1cc(-c2cc(Cc3cccc(C(F)(F)F)c3)ccn2)ccc1C(N)=O [Compound 1, 2-methyl-4-(4-{[3-(trifluoromethyl)phenyl]methyl}pyridin-2-yl)benzamide]
39 | < 25 nM | Cc1cc(-c2cc(Cc3cc(F)cc(C#N)c3)ccn2)ccc1C(N)=O [Compound 3, 4-{4-[(3-cyano-5-fluorophenyl)methyl]pyridin-2-yl}-2-methylbenzamide]
40 | < 25 nM | Cc1cc(-c2cc(Cc3cc(F)c(F)c(Cl)c3)ccn2)ccc1C(N)=O [Compound 2, 4-{4-[(3-chloro-4,5-difluorophenyl)methyl]pyridin-2-yl}-2-methylbenzamide]
41 | < 25 nM | Cc1cc(-c2cc(Cc3cncc(S(C)(=O)=O)c3)ccn2)ccc1C(N)=O [Compound 44, 4-{4-[(5-methanesulfonylpyridin-3-yl)methyl]pyridin-2-yl}-2-methylbenzamide]
